Test results taken from patent publication US20250205344A1, “2,4-DIOXOTETRAHYDROPYRIMIDINYL DERATIVES AS DEGRONS IN PROTACS” (GLAXOSMITHKLINE INTELLECTUAL PROPERTY DEVELOPMENT LIMITED, priority 2022, published 2025).
Where a name gives a salt, the structure may show the parent alone.

Each compound was assayed against T1, Androgen Receptor (Homo sapiens, UniProt P10275, T878A) (assay: Androgen Receptor Degradation Assay (Nano-Glo HiBiT)). Conditions: LNCaP, 18 h, HiBiT-tagged AR in human LnCaP cells, read-out: mean asymptote max.
T1 construct: the AR gene was modified, using CRISPR/Cas9 editing, so the expressed AR protein included an 11 amino acid HiBiT tag; endogenous in cells; host or cells: clonal LnCaP-derived line, AR gene edited by CRISPR/Cas9
Type: cell-based
Summary of the method: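 LnCaP cells with CRISPR-knocked-in N-terminal HiBiT-tagged AR (10,000/well) treated 18 h at 37 °C with PROTACs over 11 threefold concentrations; lytic HiBiT luminescence normalised to DMSO (0%) and cell-free (100%) controls. Relative DC50 = 4-parameter fit inflection; absolute DC50 = 50% degradation interpolation; Dmax = maximum observed degradation.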

T1 sequence (P10275 whole entry T878A): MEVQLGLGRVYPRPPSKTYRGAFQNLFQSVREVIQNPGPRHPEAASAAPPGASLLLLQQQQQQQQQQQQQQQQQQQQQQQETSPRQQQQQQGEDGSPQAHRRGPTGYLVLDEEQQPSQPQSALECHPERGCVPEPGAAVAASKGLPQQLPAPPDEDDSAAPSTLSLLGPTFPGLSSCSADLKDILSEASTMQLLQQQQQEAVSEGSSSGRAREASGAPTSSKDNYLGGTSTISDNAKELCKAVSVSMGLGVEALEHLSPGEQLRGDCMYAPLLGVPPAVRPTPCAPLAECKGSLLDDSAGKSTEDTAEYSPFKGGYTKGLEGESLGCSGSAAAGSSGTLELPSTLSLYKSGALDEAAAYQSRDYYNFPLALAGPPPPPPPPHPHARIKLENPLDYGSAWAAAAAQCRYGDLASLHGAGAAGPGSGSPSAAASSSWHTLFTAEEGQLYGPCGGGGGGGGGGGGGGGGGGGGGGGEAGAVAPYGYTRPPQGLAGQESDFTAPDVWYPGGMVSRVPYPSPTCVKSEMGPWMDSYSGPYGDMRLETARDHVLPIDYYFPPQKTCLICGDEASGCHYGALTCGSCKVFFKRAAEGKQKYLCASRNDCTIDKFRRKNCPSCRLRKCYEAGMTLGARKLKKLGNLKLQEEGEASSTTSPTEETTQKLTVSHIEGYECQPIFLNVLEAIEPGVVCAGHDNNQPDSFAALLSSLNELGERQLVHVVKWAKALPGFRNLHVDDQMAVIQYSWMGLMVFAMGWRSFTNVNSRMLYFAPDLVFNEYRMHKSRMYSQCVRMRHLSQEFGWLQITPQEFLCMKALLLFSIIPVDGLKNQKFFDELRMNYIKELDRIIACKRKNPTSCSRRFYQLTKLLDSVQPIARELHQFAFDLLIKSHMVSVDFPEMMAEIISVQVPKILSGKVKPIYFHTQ
T1 sequence (Q96SW2 whole entry partner): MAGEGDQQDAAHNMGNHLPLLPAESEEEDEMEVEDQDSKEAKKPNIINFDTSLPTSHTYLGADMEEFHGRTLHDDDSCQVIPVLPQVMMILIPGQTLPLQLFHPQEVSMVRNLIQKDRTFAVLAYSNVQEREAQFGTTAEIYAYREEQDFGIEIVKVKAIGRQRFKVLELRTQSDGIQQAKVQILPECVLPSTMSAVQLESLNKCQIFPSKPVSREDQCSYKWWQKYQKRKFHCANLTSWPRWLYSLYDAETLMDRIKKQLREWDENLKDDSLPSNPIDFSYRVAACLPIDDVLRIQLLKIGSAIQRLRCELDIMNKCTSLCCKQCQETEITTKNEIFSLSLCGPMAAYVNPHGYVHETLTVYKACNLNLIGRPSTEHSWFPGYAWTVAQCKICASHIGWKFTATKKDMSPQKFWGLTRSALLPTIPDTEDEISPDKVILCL
T1 sequence (Q16531 whole entry partner): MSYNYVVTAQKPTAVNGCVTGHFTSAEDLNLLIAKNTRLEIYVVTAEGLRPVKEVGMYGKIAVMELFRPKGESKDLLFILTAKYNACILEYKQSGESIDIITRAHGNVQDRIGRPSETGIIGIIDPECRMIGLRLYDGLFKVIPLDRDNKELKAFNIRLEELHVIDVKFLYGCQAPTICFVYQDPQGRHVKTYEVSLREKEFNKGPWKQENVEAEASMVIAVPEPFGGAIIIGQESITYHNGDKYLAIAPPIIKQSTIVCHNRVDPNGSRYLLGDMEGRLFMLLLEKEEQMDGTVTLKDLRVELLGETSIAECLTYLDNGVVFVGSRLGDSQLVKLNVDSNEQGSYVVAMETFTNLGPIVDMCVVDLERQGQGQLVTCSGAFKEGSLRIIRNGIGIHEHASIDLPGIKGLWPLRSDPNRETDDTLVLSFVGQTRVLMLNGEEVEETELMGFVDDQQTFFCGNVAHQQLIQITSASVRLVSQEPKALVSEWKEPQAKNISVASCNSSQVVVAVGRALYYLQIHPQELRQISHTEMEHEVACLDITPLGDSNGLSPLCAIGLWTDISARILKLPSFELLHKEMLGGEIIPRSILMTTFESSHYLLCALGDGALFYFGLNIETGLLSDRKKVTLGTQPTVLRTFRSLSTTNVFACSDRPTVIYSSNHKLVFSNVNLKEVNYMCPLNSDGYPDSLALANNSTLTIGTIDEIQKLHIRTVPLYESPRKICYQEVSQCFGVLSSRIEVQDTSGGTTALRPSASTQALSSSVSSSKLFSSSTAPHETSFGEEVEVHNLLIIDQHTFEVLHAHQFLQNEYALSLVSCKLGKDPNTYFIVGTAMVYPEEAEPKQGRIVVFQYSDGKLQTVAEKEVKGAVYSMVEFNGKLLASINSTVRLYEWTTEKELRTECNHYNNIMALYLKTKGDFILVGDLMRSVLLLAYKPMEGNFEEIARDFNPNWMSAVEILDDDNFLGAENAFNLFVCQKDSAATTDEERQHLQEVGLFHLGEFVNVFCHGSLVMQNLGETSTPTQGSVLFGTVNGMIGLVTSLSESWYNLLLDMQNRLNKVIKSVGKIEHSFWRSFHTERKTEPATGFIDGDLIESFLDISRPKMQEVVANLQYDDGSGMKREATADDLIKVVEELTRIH

SMILES	Dmax
CN(c1ccc(C#N)c(Cl)c1)[C@H]1CC[C@H](NC(=O)c2ccc(N3CCC(CN4CCC(n5ccc6c(N7CCC(=O)NC7=O)ncnc65)CC4)CC3)nn2)CC1 [EAR214, N-((1r,4r)-4-((3-Chloro-4-cyanophenyl)(methyl)amino)cyclohexyl)-6-(4-((4-(4-(2,4-dioxotetrahydropyrimidin-1(2H)-yl)-7H-pyrrolo[2,3-d]pyrimidin-7-yl)piperidin-1-yl)methyl)piperidin-1-yl)pyridazine-3-carboxamide hydrochloride]	≥ 50%
N#Cc1ccc(O[C@H]2CC[C@H](NC(=O)c3cnc(N4CCC(CN5CCC(n6ncc7c(N8CCC(=O)NC8=O)c(F)ccc76)CC5)CC4)cn3)CC2)cc1C(F)(F)F [EAR189, N-((1r,4r)-4-(4-Cyano-3-(trifluoromethyl)phenoxy)cyclohexyl)-5-(4-((4-(4-(2,4-dioxotetrahydropyrimidin-1(2H)-yl)-5-fluoro-1H-indazol-1-yl)piperidin-1-yl)methyl)piperidin-1-yl)pyrazine-2-carboxamide hydrochloride]	≥ 50%
C[C@@H]1CN(c2ccc(C#N)c(Cl)c2)[C@@H](C)CN1C(=O)c1ccc(OCCCCCN2CCC(n3ncc4c(N5CCC(=O)NC5=O)cncc43)CC2)nc1 [EAR164, 2-Chloro-4-((2S,5R)-4-(6-((5-(4-(4-(2,4-dioxotetrahydropyrimidin-1(2H)-yl)-1H-pyrazolo[3,4-c]pyridin-1-yl)piperidin-1-yl)pentyl)oxy)nicotinoyl)-2,5-dimethylpiperazin-1-yl)benzonitrile]	≥ 50%
CC(C)n1ccc2c(N3CCC(=O)NC3=O)cc(C(=O)N(C)CC3CCN(CCCOc4ccc(N5C(=S)N(c6ccc(C#N)c(C(F)(F)F)c6)C(=O)C5(C)C)cc4)CC3)cc21 [EAR93, N-((1-(3-(4-(3-(4-Cyano-3-(trifluoromethyl)phenyl)-5,5-dimethyl-4-oxo-2-thioxoimidazolidin-1-yl)phenoxy)propyl)piperidin-4-yl)methyl)-4-(2,4-dioxotetrahydropyrimidin-1(2H)-yl)-1-isopropyl-N-methyl-1H-indole-6-carboxamide formate]	≥ 50%
N#Cc1ccc(O[C@H]2CC[C@H](NC(=O)c3ccc(N4CCC(CN5CCC(n6ccc7c(N8CCC(=O)NC8=O)ccnc76)CC5)CC4)nn3)CC2)cc1Cl [EAR149, N-((1r,4r)-4-(3-Chloro-4-cyanophenoxy)cyclohexyl)-6-(4-((4-(4-(2,4-dioxotetrahydropyrimidin-1(2H)-yl)-1H-pyrrolo[2,3-b]pyridin-1-yl)piperidin-1-yl)methyl)piperidin-1-yl)pyridazine-3-carboxamide]	≥ 50%
C[C@@H]1CN(C(=O)Nc2ccc(N3CCC(CCN4CCC(n5ncc6c(N7CCC(=O)NC7=O)cccc65)CC4)CC3)nc2)[C@@H](C)CN1c1ccc(C#N)c(Cl)c1 [EAR132, (2S,5R)-4-(3-Chloro-4-cyanophenyl)-N-(6-(4-(2-(4-(4-(2,4-dioxotetrahydropyrimidin-1(2H)-yl)-1H-indazol-1-yl)piperidin-1-yl)ethyl)piperidin-1-yl)pyridin-3-yl)-2,5-dimethylpiperazine-1-carboxamide, formic acid salt]	≥ 50%
N#Cc1ccc(O[C@H]2CC[C@H](NC(=O)c3ccc4c(c3)CN(C(=O)CN3CCC(n5ccc6c(N7CCC(=O)NC7=O)cccc65)CC3)C4)CC2)cc1Cl [AR6, N-((1r,4r)-4-(3-Chloro-4-cyanophenoxy)cyclohexyl)-2-(2-(4-(4-(2,4-dioxotetrahydropyrimidin-1(2H)-yl)-1H-indol-1-yl)piperidin-1-yl)acetyl)isoindoline-5-carboxamide]	≥ 50%
N#Cc1ccc(O[C@H]2CC[C@H](NC(=O)c3ccc(N4CCC(CN5CCC(n6ncc7c(N8CCC(=O)NC8=O)cccc76)CC5)CC4)nc3)CC2)cc1C(F)(F)F [EAR40, N-((1r,4r)-4-(4-Cyano-3-(trifluoromethyl)phenoxy)cyclohexyl)-6-(4-((4-(4-(2,4-dioxotetrahydropyrimidin-1(2H)-yl)-1H-indazol-1-yl)piperidin-1-yl)methyl)piperidin-1-yl)nicotinamide hydrochloride]	≥ 50%

Continued, values first:

Dmax	SMILES
≥ 50%	CC(C)n1ccc2c(N3CCC(=O)NC3=O)cc(C(=O)N3CCN(CCCOc4ccc(C(=O)N[C@H]5CC[C@H](Oc6ccc(C#N)c(Cl)c6)CC5)nc4)CC3)cc21 [EAR59, N-((1r,4r)-4-(3-Chloro-4-cyanophenoxy)cyclohexyl)-5-(3-(4-(4-(2,4-dioxotetrahydropyrimidin-1(2H)-yl)-1-isopropyl-1H-indole-6-carbonyl)piperazin-1-yl)propoxy)picolinamide]
≥ 50%	CC1(C)[C@H](NC(=O)c2ccc(N3CCC(CN4CCC(n5ccc6c(N7CCC(=O)NC7=O)cncc65)CC4)CC3)nn2)C(C)(C)[C@H]1Oc1ccc(C#N)c(Cl)c1 [EAR56, N-((1r,3r)-3-(3-Chloro-4-cyanophenoxy)-2,2,4,4-tetramethylcyclobutyl)-6-(4-((4-(4-(2,4-dioxotetrahydropyrimidin-1(2H)-yl)-1H-pyrrolo[2,3-c]pyridin-1-yl)piperidin-1-yl)methyl)piperidin-1-yl)pyridazine-3-carboxamide]
≥ 50%	N#Cc1ccc(O[C@H]2CC[C@H](NC(=O)c3ccc(N4C[C@@H]5[C@H](CN6CCC(n7ncc8c(N9CCC(=O)NC9=O)cccc87)CC6)[C@@H]5C4)nn3)CC2)cc1Cl [EAR235, N-((1r,4R)-4-(3-chloro-4-cyanophenoxy)cyclohexyl)-6-((1R,5S,6R)-6-((4-(4-(2,4-dioxotetrahydropyrimidin-1(2H)-yl)-1H-indazol-1-yl)piperidin-1-yl)methyl)-3-azabicyclo[3.1.0]hexan-3-yl)pyridazine-3-carboxamide]
≥ 50%	N#Cc1ccc(O[C@H]2CC[C@H](NC(=O)c3ccc(N4CCC(CN5CCC(n6ncc7c(N8CCC(=O)NC8=O)nccc76)CC5)CC4)nn3)CC2)cc1Cl [EAR51, N-((1r,4r)-4-(3-Chloro-4-cyanophenoxy)cyclohexyl)-6-(4-((4-(4-(2,4-dioxotetrahydropyrimidin-1(2H)-yl)-1H-pyrazolo[4,3-c]pyridin-1-yl)piperidin-1-yl)methyl)piperidin-1-yl)pyridazine-3-carboxamide]
≥ 50%	N#Cc1ccc(O[C@H]2CC[C@H](NC(=O)c3ccc(N4CCC(CN5CC[C@H](n6ccc7c(N8CCC(=O)NC8=O)cccc76)C5)CC4)nn3)CC2)cc1Cl [EAR171, N-((1r,4r)-4-(3-Chloro-4-cyanophenoxy)cyclohexyl)-6-(4-(((R)-3-(4-(2,4-dioxotetrahydropyrimidin-1(2H)-yl)-1H-indol-1-yl)pyrrolidin-1-yl)methyl)piperidin-1-yl)pyridazine-3-carboxamide, hydrochloride]
≥ 50%	N#Cc1ccc(O[C@H]2CC[C@H](NC(=O)c3cnc(N4CCC(CN5CCC(n6ncc7c(N8CCC(=O)NC8=O)cc(F)cc76)CC5)CC4)nc3)CC2)cc1Cl [AR205, N-((1r,4r)-4-(3-Chloro-4-cyanophenoxy)cyclohexyl)-2-(4-((4-(4-(2,4-dioxotetrahydropyrimidin-1(2H)-yl)-6-fluoro-1H-indazol-1-yl)piperidin-1-yl)methyl)piperidin-1-yl)pyrimidine-5-carboxamide]
≥ 50%	CN(C)C(=O)c1cc(N2CCC(=O)NC2=O)c2ccn(C3CCN(CC4CCN(c5ccc(C(=O)N[C@H]6CC[C@H](Oc7ccc(C#N)c(Cl)c7)CC6)nn5)CC4)CC3)c2c1 [EAR35, 1-(1-((1-(6-(((1r,4r)-4-(3-Chloro-4-cyanophenoxy)cyclohexyl)carbamoyl)pyridazin-3-yl)piperidin-4-yl)methyl)piperidin-4-yl)-4-(2,4-dioxotetrahydropyrimidin-1(2H)-yl)-N,N-dimethyl-1H-indole-6-carboxamide]
≥ 50%	N#Cc1ccc(O[C@H]2CC[C@H](NC(=O)c3ccc(N4CCC(CN5CC(n6ccc7c(N8CCC(=O)NC8=O)cccc76)C5)CC4)nn3)CC2)cc1Cl [EAR131, N-((1r,4r)-4-(3-chloro-4-cyanophenoxy)cyclohexyl)-6-(4-((3-(4-(2,4-dioxotetrahydropyrimidin-1(2H)-yl)-1H-indol-1-yl)azetidin-1-yl)methyl)piperidin-1-yl)pyridazine-3-carboxamide]
≥ 50%	N#Cc1ccc(O[C@H]2CC[C@H](NC(=O)c3ccc(N4CCC5(CC4)CC(CN4CCC(n6ncc7c(N8CCC(=O)NC8=O)cccc76)CC4)C5)nn3)CC2)cc1Cl [EAR237, N-((1r,4r)-4-(3-chloro-4-cyanophenoxy)cyclohexyl)-6-(2-((4-(4-(2,4-dioxotetrahydropyrimidin-1(2H)-yl)-1H-indazol-1-yl)piperidin-1-yl)methyl)-7-azaspiro[3.5]nonan-7-yl)pyridazine-3-carboxamide]
≥ 50%	N#Cc1ccc(O[C@H]2CC[C@H](NC(=O)c3cnc(N4CCC(CN5CCC(n6ccc7c(N8CCC(=O)NC8=O)cccc76)CC5)CC4)cn3)CC2)cc1C(F)(F)F [EAR22, N-((1r,4r)-4-(4-Cyano-3-(trifluoromethyl)phenoxy)cyclohexyl)-5-(4-((4-(4-(2,4-dioxotetrahydropyrimidin-1(2H)-yl)-1H-indol-1-yl)piperidin-1-yl)methyl)piperidin-1-yl)pyrazine-2-carboxamide hydrochloride]
≥ 50%	CC(C)n1ccc2c(N3CCC(=O)NC3=O)cc(C(=O)N3CCC4(CCCN(Cc5ccc(C(=O)N[C@H]6CC[C@H](Oc7ccc(C#N)c(Cl)c7)CC6)cc5)C4)CC3)cc21 [EAR81, N-((1r,4r)-4-(3-Chloro-4-cyanophenoxy)cyclohexyl)-4-((9-(4-(2,4-dioxotetrahydropyrimidin-1(2H)-yl)-1-isopropyl-1H-indole-6-carbonyl)-2,9-diazaspiro[5.5]undecan-2-yl)methyl)benzamide]
